Patent US20220372014A1, “NEUROPROTECTIVE COMPOUNDS AND METHODS OF USE THEREOF” (The Johns Hopkins University, priority 2019, published 2022)

Tests used:
PARP-1 = target: T1, PARP-1 (Homo sapiens, UniProt P09874); assay: In vitro ribosylation assay (IVRA) of PARP-1; type: biochemical; conditions: 1 μM
T1 construct: purchased Trevigen
Description: In vitro ribosylation assay of PARP-1. […] of recombinant PARP-1, activated DNA and NAD+(Trevigen) in the presence or absence of 1 μM of PARP-1 inhibitor, ABT-888 or PAAN/MIF inhibitors (compound 56 or 121) were incubated in the PARP assay buffer (Trevigen) for 30 m at room temperature and analyzed by immunoblot analysis using PAR antibody.

human cortical neurons [1] = assay: α-syn PFF-induced cell death in human cortical neurons (Hoechst and PI staining); type: cell-based; conditions: pre-incubated 1 h, α-syn PFF 14 days
Description: (§1) Preparation of human cortical neurons. Human H1 embryonic stem cells (ESCs) were differentiated into cortical neurons as previously described. See Xu et al. (2016) Sci. Transl. Med. 8:333ra48. Briefly, ESC colonies detached from mouse embryonic fibroblasts (MEFs) were grown in suspension in human ESC medium without FGF2 for 6 days in low-attachment six-well plates (Corning). On day 7, free-floating embyroid bodies (EB)s were transferred to Matrigel coated plates to allow the complete attachment of EB and formation of rosette neuronal aggregates (RONAs). RONAs were manually microisolated and maintained as neurospheres for 1 day and then dissociated into single cells and plated on laminin/poly-D-lysine-coated plates for further experiments. […]
Cell death and viability assessment. Primary cultured cortical neurons were treated with 5 μg/ml of α-syn PFF for 14 days and cell death was determined by staining of all nuclei with 7 μM Hoechst 33342 and dead cell nuclei with 2 μM propidium iodide (PI) (Invitrogen). The numbers of total and dead cells were counted with the Axiovision 4.6 software (Carl Zeiss). Cell viability was determined by fluorescence at an excitation wavelength 570 nm and an emission wavelength 585 nm using Alamar Blue (Invitrogen).

human cortical neurons [2] = assay: Pulsed-field gel electrophoresis of α-syn PFF-induced DNA damage in human cortical neurons; type: cell-based
Description: Preparation and quantification of genomic DNA. The striatum was rapidly removed from the brain and lysed by repetitive pipetting with a micropipette in lysis buffer [100 mM NaCl, 10 mM Tris-HCl (pH 8.0), 25 mM EDTA (pH 8.0), 0.5% SDS] with 0.2 mg/ml proteinase K (Roche Diagnotics). Samples were incubated 55° C. for overnight and further incubated 85° C. for 45 m to inactivate proteinase K. The genomic DNA were immediately separated on a 1.2% pulse field certified agarose in 0.5×TBE buffer with initial switch time of 1.5 s and a final switch time of 3.5 s for 12 h at 6 V/cm. The gel was then stained with […] Ethidium Bromide (EtBr) and visualized on UV light. Noncleaved genomic DNA was quantified as percentage (%) of the total genomic DNA that included both noncleaved genomic DNA and cleaved genomic DNA in each individual group.
as §1, with “(RONAs).” for “(RONAs). RONAs were manually microisolated and maintained as neurospheres for 1 day and then dissociated into single cells and plated on laminin/poly-D-lysine-coated plates for further experiments.”

PAAN/MIF WT or variants = target: T2, PAAN/MIF WT or variants (Homo sapiens, UniProt P14174); assay: Biolayer interferometry (ForteBio Octet) binding assay; conditions: PAAN/MIF WT
T2 construct: made in house; host or cells: Escherichia coli
Excerpt: (§2) Purification of PAAN/MIF recombinant proteins. Human PAAN/MIF (NM_002415) cDNA and its variants were subcloned into pGEX-6β-1 vector (GE Healthcare) and mutants were generated using a QuikChange site-directed mutagenesis kit (Stratagene). The sequences were confirmed by automated DNA sequencing. The protein was expressed and purified from Escherichia coli by glutathione sepharose (GE Healthcare). The GST tag was subsequently proteolytically removed. GST protein was used as a negative control in the nuclease assay and PAAN/MIF proteins purified by FPLC using Superdex 200 10/300GL column (GE Healthcare, Life Sciences) were also used in the nuclease assays.
Biolayer interferometry assay. The dose-dependent binding of compound 121 for PAAN/MIF WT or PAAN/MIF variants were determined by a biolayer interferometry assay using Octet RED96 (ForteBio). See Guo et al. (2018) Nat. Chem. 11:254-63. All the proteins used in this assay were tagged with GST. Anti-GST biosensor tips (ForteBio) were used to immobilize the GST proteins after prewetting with 1X kinetic buffer (ForteBio). The equilibrated GST biosensors were loaded with PAAN/MIF WT or variants (25 μg/ml). Background binding controls were measured by sensors that were incubated in buffer without proteins. All assays were performed by a standard protocol in 96-well black plates (Greiner Bio) with a total volume of 200 μl per well. All the data were analyzed by Octet data analysis software.

PAAN/MIF = assay: In vitro PAAN/MIF nuclease assay (PS30 or RF substrate, PAGE gel, noncleaved substrate DNA); type: biochemical, human
Description: Nuclease assay. Purified PAAN/MIF protein (4 μM) was incubated with compounds (10 μM) in the nuclease buffer [10 mM Tris-C1 (pH 7.0) and 10 mM MgCl2] for 20 m on ice. Then samples were added with 1 μM of PAAN/MIF substrate (PS30 or RF) and incubated for 1 h at 37° C. The reaction was terminated with loading buffer containing 10 mM EDTA and separated on 15% TBE-urea polyacrylamide (PAGE) gel or 20% TBE PAGE gel.
as §2

[3] = tested on: α-syn PFF injected WT mice; assay: Intrastriatal α-syn PFF mouse model (TH/Nissl stereology, HPLC of dopamine and DOPAC, pole test, grip strength test, pulsed-field gel, weight)
[4] = both doses, 5 and 15 mg/kg/day oral, 5 months

T1 sequence (P09874 whole entry): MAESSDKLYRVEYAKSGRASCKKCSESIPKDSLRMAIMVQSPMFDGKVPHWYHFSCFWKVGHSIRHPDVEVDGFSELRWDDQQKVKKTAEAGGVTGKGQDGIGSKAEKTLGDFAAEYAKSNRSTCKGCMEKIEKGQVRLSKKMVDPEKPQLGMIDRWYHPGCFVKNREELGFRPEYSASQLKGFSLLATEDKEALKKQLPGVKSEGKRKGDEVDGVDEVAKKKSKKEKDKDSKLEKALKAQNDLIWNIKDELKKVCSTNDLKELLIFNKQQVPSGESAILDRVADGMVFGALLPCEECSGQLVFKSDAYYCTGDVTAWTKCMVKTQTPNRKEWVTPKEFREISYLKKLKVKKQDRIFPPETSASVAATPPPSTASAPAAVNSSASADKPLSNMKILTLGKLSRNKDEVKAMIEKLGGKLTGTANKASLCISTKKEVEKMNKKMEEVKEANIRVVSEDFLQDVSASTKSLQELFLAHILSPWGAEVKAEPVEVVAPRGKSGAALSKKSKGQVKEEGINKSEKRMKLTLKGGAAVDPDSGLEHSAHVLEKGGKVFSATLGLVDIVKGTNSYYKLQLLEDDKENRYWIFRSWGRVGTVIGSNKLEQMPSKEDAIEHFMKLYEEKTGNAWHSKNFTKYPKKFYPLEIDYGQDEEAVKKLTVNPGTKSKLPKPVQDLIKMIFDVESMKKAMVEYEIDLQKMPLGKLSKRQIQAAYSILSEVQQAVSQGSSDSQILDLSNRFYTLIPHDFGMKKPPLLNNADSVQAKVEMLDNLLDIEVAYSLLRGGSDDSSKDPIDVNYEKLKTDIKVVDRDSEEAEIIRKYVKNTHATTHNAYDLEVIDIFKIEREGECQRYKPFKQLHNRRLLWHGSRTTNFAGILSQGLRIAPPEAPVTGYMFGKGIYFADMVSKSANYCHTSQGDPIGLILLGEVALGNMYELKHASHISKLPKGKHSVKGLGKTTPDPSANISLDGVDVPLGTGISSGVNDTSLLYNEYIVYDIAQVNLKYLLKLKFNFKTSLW

Question: With COc1ccc(CC[C@H]2OC(=O)[C@@H]3CCCCN3C(=O)C(=O)C(C)(C)COC(=O)C=CCCN(C)C(=O)[C@@H]3CCCN3C(=O)[C@H](COC(C)(C)C)N(C)C(=O)C(c3ccccc3)NC(=O)[C@H](C)N(C)C(=O)COc3cccc2c3)cc1OC (some centres unmarked) [compound 56] as the compound, how does the “ABT-888 sensitive PARP activity” value (PARP-1) read?
Answer: failed to inhibit

Question: And the “cell death in human cortical neurons treated with human α-syn PFF” value (human cortical neurons [1])?
Answer: protected against cell death similar to ABT-888

Question: And the “genomic DNA cleavage in human cortical neurons treated with human α-syn PFF” value (human cortical neurons [2])?
Answer: prevented genomic DNA cleavage

Question: What does the source list for COc1ccc(CC[C@H]2OC(=O)[C@@H]3CCCCN3C(=O)C(=O)C(C)(C)COC(=O)C=CCCN(C)C(=O)[C@@H]3CCCN3C(=O)[C@H](COC(C)(C)C)N(C)C(=O)C(c3ccccc3)NC(=O)[C@H](C)N(C)C(=O)COc3cc(F)cc2c3)cc1OC (mixture of isomers) [compound 121]?
Answer: Kd, binding affinity of PAAN/MIF (PAAN/MIF WT or variants): 1.56 µM; ABT-888 sensitive PARP activity (PARP-1): failed to inhibit; nuclease activity of MIF 66-67A or MIF 97-99A mutants (PAAN/MIF; mutants K66A and I67A, N97A, Y98A and Y99A): remained sensitive to inhibition; nuclease activity of PAAN/MIF 60-63A and PAAN/MIF N72A mutants (PAAN/MIF; mutants S60A, L61A, H62A and S63A (MIF 60-63A), N72A): became resistant; tolerability (toxicity, weight) ([3]; 5 and 15 mg/kg/day oral, 5 months): no overt toxicity or weight loss; behavioral deficits (pole test, grip strength test) [3, 4]: prevents; loss of DA neurons (TH and Nissl stereology, TH immunoblot, HPLC of DA and DOPAC) [3, 4]: prevents the loss of DA neurons; α-syn PFF-induced large scale genomic DNA cleavage in vivo ([3]; pulse gel electrophoresis): significantly attenuated

Question: How did the “binding to PAAN/MIF” value (PAAN/MIF WT or variants) turn out when COc1ccc(CC[C@H]2OC(=O)[C@@H]3CCCCN3C(=O)C(=O)C(C)(C)COC(=O)C=CCCN(C)C(=O)[C@@H]3CCCN3C(=O)[C@H](CO)N(C)C(=O)C(c3ccccc3)NC(=O)[C@H](C)N(C)C(=O)COc3cccc2c3)cc1OC (some centres unmarked) [compound 97] was run?
Answer: lack of binding

Question: What does the source list for COc1ccc(CC[C@H]2OC(=O)[C@@H]3CCCCN3C(=O)C(=O)C(C)(C)COC(=O)C=CCCN(C)C(=O)[C@H](C)NC(=O)[C@H](C(C)C)N(C)C(=O)[C@@H](Cc3ccccc3)NC(=O)[C@H](CC(C)C)N(C)C(=O)CCC(=O)Nc3cccc2c3)cc1OC [compound 77]?
Answer: cell death in human cortical neurons treated with human α-syn PFF (human cortical neurons [1]): protected against cell death similar to ABT-888; genomic DNA cleavage in human cortical neurons treated with human α-syn PFF (human cortical neurons [2]): prevented genomic DNA cleavage
